Measured values reported in patent US20250082557A1, “COMPOSITION FOR ENHANCING SKIN VITALITY CONTAINING A THYMOL ESTER-BASED COMPOUND” (Amorepacific Corporation, priority 2023, published 2025).

Experiments:
skin fibroblasts = test: Mitochondrial activity: maximal oxygen consumption rate (OCR), Seahorse XF cell mitochondrial stress test; type: cell-based
Source text: Specifically, the Seahorse XF Pro analyzer equipment from Agilent was used, and the mitochondrial activity (ATP energy production efficiency), i.e., the maximal oxygen consumption rate (OCR), was observed according to the standard protocol provided with the Seahorse XF cell mitochondrial stress measurement kit provided by the company (FIG. 2).

[1] = system: mitophagy marker genes (VDAC, Parkin, PINK); test: Expression of mitophagy marker genes (VDAC, Parkin, PINK) by RT-PCR; type: cell-based; conditions: fibroblasts, hydrocortisone 10 μM and MELASOLV 5.5 μg/ml for 24 hours; FIGS. 3 to 5
Procedure: Fibroblasts were seeded in 10 cm^2 cell culture dishes at a concentration of 3×10^5 cells/dish and cultured in 10 ml of minimum essential medium eagle (MEM) medium containing 10% fetal bovine serum (FBS) and 1% penicillin streptomycin. After 24 hours, the cells reached approximately 70%, and the cells were treated with (1) DMSO (control), (2) hydrocortisone (10 μM) alone, or (3) hydrocortisone (10 μM) and MELASOLV™ (5.5 μg/ml) for 24 hours.
RNA was extracted with easy-BLUE (INTRON) reagent. cDNA samples were generated from 0.5 μg of RNA using PrimeScript RT reagent Kit. The generated cDNA was amplified using ACCUPOWER™ PCR Premix. The PCR products were further analyzed using PCR Thermal Cycler Dice.
It was confirmed through a […] in the expression of mitophagy marker genes (VDAC, Parkin, PINK) whether it contributes to the activation of mitophagy which removes unnecessary elements from mitochondria.

[2] = hydrocortisone 10 uM 24 hours, MELASOLV 5 ppm 24 hours, FIG. 2

SMILES: COc1cc(/C=C/C(=O)Oc2cc(C)ccc2C(C)C)cc(OC)c1OC [MELASOLV™, (5-methyl-2-propan-2-ylphenyl) (E)-3-(3,4,5-trimethoxyphenyl) prop-2-enoate]
- maximal respiration (OCR) compared to the control group not treated with anything (skin fibroblasts; [2]): increased higher
- maximal respiration (maximal oxygen consumption rate, OCR) compared to treatment with only hydrocortisone (skin fibroblasts; [2]): statistically significantly higher
- cell respiration rate (OCR) reduced by hydrocortisone, effect of treatment (skin fibroblasts; hydrocortisone 10 uM, MELASOLV 5 ppm 24 hours): recovered
- expression of mitophagy genes (VDAC, Parkin, PINK) [1]: increased

SMILES: C[C@]12CCC(=O)C=C1CC[C@@H]1[C@@H]2[C@@H](O)C[C@@]2(C)[C@H]1CC[C@]2(O)C(=O)CO [hydrocortisone, reference compound]
- cell respiration rate (OCR) compared to the control group (Ctrl) (skin fibroblasts; hydrocortisone 10 uM 24 hours alone (stress-induced condition)): reduced
